Key:
[1] = Inhibition of aggrecanase
Homo sapiens = species: Homo sapiens; experiment: Compound tested for the in vitro inhibition of TNF-alpha production was determined by using LPS-stimulated human whole blood assay (WBA); type: functional
[2] = target: Matrix metalloproteinase-9 (Homo sapiens, UniProt P14780); experiment: Inhibition of matrix metalloprotease-9 (MMP-9)
[3] = target: 72 kDa type IV collagenase (Homo sapiens, UniProt P08253); experiment: Inhibition of matrix metalloprotease-2 (MMP-2)
Chain of 72 kDa type IV collagenase (P08253 whole entry, the tested form may be a part): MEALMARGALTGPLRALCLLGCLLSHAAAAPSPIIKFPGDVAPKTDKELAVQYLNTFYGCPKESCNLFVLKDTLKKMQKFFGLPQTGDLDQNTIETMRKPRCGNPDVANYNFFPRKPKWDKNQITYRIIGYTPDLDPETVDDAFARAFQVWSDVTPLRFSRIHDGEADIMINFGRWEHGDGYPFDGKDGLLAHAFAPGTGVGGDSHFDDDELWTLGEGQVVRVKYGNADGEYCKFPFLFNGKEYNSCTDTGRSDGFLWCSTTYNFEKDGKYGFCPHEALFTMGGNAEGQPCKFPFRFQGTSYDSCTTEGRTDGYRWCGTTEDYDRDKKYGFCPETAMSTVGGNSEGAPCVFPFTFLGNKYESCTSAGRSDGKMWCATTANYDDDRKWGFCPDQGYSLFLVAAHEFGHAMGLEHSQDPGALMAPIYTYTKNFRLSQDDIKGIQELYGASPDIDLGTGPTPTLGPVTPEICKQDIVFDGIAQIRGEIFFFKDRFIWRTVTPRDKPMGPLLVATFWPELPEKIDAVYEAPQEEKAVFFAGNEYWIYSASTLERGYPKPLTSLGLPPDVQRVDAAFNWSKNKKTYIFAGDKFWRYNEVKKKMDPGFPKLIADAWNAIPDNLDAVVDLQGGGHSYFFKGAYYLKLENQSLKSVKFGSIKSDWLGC

[4] = target: Disintegrin and metalloproteinase domain-containing protein 17 (Sus scrofa, UniProt O77636); experiment: Inhibition of porcine TACE
Chain of Disintegrin and metalloproteinase domain-containing protein 17 (O77636 whole entry, the tested form may be a part): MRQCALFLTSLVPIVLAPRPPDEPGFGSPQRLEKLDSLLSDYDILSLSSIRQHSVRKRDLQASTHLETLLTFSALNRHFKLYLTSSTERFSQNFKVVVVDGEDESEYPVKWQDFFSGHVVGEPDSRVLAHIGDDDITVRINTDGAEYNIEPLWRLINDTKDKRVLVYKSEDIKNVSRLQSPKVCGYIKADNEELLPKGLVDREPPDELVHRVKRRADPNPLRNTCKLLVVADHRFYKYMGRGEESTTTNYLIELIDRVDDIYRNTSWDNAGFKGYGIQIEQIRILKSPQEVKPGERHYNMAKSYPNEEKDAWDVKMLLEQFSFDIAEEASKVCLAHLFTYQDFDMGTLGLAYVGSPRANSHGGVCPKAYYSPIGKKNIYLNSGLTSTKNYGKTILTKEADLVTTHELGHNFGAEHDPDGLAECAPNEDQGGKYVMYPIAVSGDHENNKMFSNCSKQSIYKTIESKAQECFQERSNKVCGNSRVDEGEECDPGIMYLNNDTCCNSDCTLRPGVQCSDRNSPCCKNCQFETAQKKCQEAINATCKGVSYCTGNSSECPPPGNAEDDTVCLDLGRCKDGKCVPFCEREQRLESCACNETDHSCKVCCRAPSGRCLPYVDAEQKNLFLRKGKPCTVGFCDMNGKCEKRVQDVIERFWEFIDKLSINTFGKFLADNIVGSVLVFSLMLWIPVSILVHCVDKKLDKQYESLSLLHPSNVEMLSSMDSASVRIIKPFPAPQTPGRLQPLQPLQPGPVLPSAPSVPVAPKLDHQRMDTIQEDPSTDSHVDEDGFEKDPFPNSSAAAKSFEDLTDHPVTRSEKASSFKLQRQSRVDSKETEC

Interstitial collagenase = target: T1, Interstitial collagenase (Homo sapiens, UniProt P03956); experiment: Inhibition of matrix metalloprotease-1 (MMP-1)
T1 sequence (P03956 whole entry): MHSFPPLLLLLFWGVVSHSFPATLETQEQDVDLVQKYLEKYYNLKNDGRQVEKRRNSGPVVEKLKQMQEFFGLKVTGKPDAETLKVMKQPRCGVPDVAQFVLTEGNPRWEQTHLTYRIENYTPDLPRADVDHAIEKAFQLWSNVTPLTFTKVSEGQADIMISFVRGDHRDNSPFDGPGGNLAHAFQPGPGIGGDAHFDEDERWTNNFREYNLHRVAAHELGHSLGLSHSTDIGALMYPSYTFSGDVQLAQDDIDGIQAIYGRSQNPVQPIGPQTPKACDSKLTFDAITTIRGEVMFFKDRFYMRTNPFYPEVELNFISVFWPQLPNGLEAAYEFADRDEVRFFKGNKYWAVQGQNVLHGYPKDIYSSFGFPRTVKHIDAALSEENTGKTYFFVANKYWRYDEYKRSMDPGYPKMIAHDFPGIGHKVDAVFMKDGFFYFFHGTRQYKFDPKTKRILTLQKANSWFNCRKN

Chain of Matrix metalloproteinase-9 (P14780 whole entry): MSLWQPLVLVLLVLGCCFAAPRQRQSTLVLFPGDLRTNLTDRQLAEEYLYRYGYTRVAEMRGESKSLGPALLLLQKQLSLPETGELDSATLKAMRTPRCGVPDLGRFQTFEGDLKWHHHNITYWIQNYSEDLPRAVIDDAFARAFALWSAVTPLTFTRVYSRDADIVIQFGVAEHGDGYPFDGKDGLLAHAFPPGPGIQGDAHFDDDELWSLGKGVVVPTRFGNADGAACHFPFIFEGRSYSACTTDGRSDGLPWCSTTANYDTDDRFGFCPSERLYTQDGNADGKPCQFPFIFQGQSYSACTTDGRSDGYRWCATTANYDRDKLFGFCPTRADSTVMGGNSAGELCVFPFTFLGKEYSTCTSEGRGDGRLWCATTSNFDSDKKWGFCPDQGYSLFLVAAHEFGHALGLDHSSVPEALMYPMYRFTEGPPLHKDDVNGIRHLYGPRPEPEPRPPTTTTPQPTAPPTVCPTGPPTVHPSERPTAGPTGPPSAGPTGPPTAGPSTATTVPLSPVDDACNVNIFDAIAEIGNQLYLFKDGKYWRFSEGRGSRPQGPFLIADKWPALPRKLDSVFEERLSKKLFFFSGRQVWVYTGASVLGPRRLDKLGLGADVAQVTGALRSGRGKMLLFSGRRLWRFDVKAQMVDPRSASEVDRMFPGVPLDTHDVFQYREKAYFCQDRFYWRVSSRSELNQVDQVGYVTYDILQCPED

SMILES | Ki [1] [nM] | IC50 (Homo sapiens) [nM] | Ki [2] [nM] | Ki [3] [nM] | IC50 [4] [nM] | Ki (Interstitial collagenase) [nM]
O=C(NO)[C@H]1CCC[C@@H]1C(=O)Nc1ccc(OCc2ccccc2)cc1 | > 500 | > 50000 | > 2130 | > 3330 | 110 | > 4950
O=C(NO)[C@H]1CCC[C@@H]1C(=O)Nc1ccc(COc2ccnc3ccccc23)cc1 | > 500 | > 50000 | > 2130 | > 3330 | 39 | > 4950
O=C1NCCCC[C@@H](C(=O)NCC(=O)N2CCOCC2)NC(=O)[C@H](Cc2ccc(-c3ccccc3C(F)(F)F)cc2)[C@@H](C(=O)NO)CCCO1 |  | > 70 | > 2000 | > 2000 |  | > 2000
O=C(NO)[C@H]1CCCC[C@@H]1C(=O)Nc1ccc(C#Cc2ccc3ncccc3c2)cc1 | > 500 | > 50000 | > 2130 | > 3330 | 7240 | > 4950
O=C(NO)[C@H]1CCCC[C@@H]1C(=O)Nc1ccc(COc2ccnc3ccccc23)cc1 | > 500 | > 50000 | > 2130 | > 3330 | 8 | > 4950
O=C(NO)[C@H]1CCC[C@@H]1C(=O)Nc1ccc(OCc2cc(Cl)cc(Cl)c2)cc1 | > 500 | > 50000 | > 2130 | > 3330 | 53 | > 4950
O=C(NO)[C@H]1CCCC[C@@H]1C(=O)Nc1ccc(COc2cccc3ncccc23)cc1 | > 500 | > 50000 | 1360 | 585 | 45 | > 4950
O=C(NO)[C@H]1CCCC[C@@H]1C(=O)Nc1ccc(OCc2ccccc2)cc1 | > 500 | > 50000 | > 2130 | > 3330 | 89 | > 4950
O=C(NO)[C@H]1CCC[C@@H]1C(=O)Nc1ccc(Cc2ccncc2)cc1 | > 500 | > 50000 | > 2130 | 675 | 210 | > 4950
O=C(NO)[C@H]1CCCC[C@@H]1C(=O)Nc1ccc(COc2ccc3ncccc3c2)cc1 | > 500 | > 50000 | 876 | 1080 | 56 | > 4950
O=C(NO)[C@H]1CCC[C@@H]1C(=O)Nc1ccc(OCc2ccncc2)cc1 | > 500 | > 50000 | > 2130 | > 3330 | 620 | > 4950

— ChEMBL document CHEMBL1136470, “Rational design, synthesis and structure-activity relationships of a cyclic succinate series of TNF-alpha converting enzyme inhibitors. Part 1: lead identification” (Bioorg Med Chem Lett, 2003)
